Values quoted from earlier work in patent US6548637B1, “Ligands for opioid receptors” (Sepracor, Inc., priority 1998, dated 2003).

Test system: mice
Conditions: intracerebroventricular injections to mice

Compound: NC(=O)[C@H](Cc1ccccc1)NC(=O)[C@H](Cc1c[nH]c2ccccc12)NC(=O)C1CCCN1C(=O)[C@@H](N)Cc1ccc(O)cc1 (stereo partly drawn) [Example 1, Tyr-Pro-Trp-Phe-NH2]
- ED50 (analgesia): 8.4 µg

Compound: NC(=O)C(Cc1ccccc1)NC(=O)[C@H](Cc1ccccc1)NC(=O)C1CCCN1C(=O)[C@@H](N)Cc1ccc(O)cc1 (stereo partly drawn) [Example 2, Tyr-Pro-Phe-Phe-NH2]
- ED50 (analgesia): 2.9 µg
